For three compounds, inhibition and IC50 results are on record in ChEMBL document CHEMBL1133767, “Novel nonsubstrate inhibitors of human thymidine phosphorylase, a potential target for tumor-dependent angiogenesis” (J Med Chem, 2000).

Usually inhibition stands for the relative decrease from the control value, in per cent. A word on the IC50: it is the concentration needed to halve the response being measured. Higher therefore signals weaker potency in that assay.

SMILES strings stand for the structures. Where only a bound is given, the exact number is not on record here.

For experiment [1], the target named is T1, Thymidine phosphorylase (Homo sapiens) (UniProt P19971).
T1 sequence (whole entry): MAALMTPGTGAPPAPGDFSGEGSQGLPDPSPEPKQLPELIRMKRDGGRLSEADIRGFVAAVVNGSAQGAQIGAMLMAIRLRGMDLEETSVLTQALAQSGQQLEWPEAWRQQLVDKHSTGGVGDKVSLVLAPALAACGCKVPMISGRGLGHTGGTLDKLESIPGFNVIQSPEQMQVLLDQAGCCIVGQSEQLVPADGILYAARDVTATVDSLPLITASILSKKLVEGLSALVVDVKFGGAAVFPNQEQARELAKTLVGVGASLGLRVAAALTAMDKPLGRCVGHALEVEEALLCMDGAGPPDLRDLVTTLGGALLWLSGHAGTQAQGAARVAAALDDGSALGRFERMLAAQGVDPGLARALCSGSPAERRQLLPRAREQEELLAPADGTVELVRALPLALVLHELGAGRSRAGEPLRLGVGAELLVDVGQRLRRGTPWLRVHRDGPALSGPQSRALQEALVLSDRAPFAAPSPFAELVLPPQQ
Kind of experiment: Percent inhibition by compound was measured on Human Thymidine Phosphorylase using 100 uM thymine.

Experiment [2] has as its target T2, Thymidine phosphorylase (Homo sapiens, UniProt P19971).
T2 sequence (P19971 whole entry): T1 sequence (whole entry)
Kind of experiment: Inhibition of anabolic activity of human thymidine phosphorylase.

Experiment [3] has as its target T2, Thymidine phosphorylase. In words: Inhibition of catabolic activity of human thymidine phosphorylase.

Compound `Nc1cc(O)nc(O)n1` registered an inhibition in experiment [1] of 41%.

For `Oc1cc(NCCc2ccccc2)nc(O)n1`, the IC50 on Thymidine phosphorylase [2] turned out to be 200 µM; against Thymidine phosphorylase [3], 148 µM. `O=c1cc(NCc2ccccc2)[nH]c(=O)[nH]1`: at Thymidine phosphorylase [3], the IC50 was above 200 µM.
